Measured values as given in patent US4159384A, “Phenenyltris (carbonylimino)multi-anionic substituted triphenyl acids and salts” (American Cyanamid Company, priority 1978, dated 1979).
Counter-ions that a name gives are not always drawn.

System: shunt pathway
Assay: Test, Code 036 (C-Shunt inhibitor): lysis of fragile human erythrocytes in autologous serum, cobra venom factor
Format: biochemical
Conditions: in vitro, appropriate dilutions of the test compound
Description: An active inhibitor protects C2 from C1 and C4; (ii) Test, Code 035 (C3-C9 inhibitor)--This test determines the ability of the late components of human complement (C3-C9) to lyse EAC 142 in the presence of appropriate dilutions of the test compound. An active inhibitor protects EAC 142 from lysis by human C3-C9; (iii) Test, Code 036 (C-Shunt inhibitor)--In this test human erythrocytes rendered fragile are lysed in autologous serum via the shunt pathway activated by cobra venom factor in the presence of appropriate dilutions of the test compound. Inhibition of the shunt pathway results in failure of lysis; (iv) Forssman Vasculitis Test--Here, the well known complement dependent lesion, Forssman vasculitis, is produced in guinea pigs by intradermal injection of rabbit anti-Forssman antiserum. […]

O=C(Nc1cc(C(=O)O)c(O)c(S(=O)(=O)O)c1)c1cc(C(=O)Nc2cc(C(=O)O)c(O)c(S(=O)(=O)O)c2)cc(C(=O)Nc2cc(C(=O)O)c(O)c(S(=O)(=O)O)c2)c1 [5,5',5"-[s-Phenenyltris(carbonylimino)]tri-3-sulfo salicylic acid trisodium salt]
Shunt Inhibition 036 Wells: +1 Wells
